Test results taken from patent publication US20150024031A1, “Methods And Compositions For Reducing Pain, Inflammation, And/Or Immunological Reactions Associated With Parenterally Administering A Primary Therapeutic Agent” (BAXTER INTERNATIONAL INC., priority 2013, published 2015).

Tests used:
[1] = Drug quantitation in blood, plasma and knee joint tissues; assay type: in vivo, Lewis rats; conditions: for drug in knee tissues: end of study
Description: (§1) The ability of a dispersion comprising microparticles of an analgesic agent according to the invention to mediate pain and inflammation was investigated in an animal model. Lewis rats were inoculated with peptidoglycan-polysaccharide (PG-PS) (5.4 mg/mL, Lee Laboratories) by intraarticular injection in the right knee two weeks prior to the start of the examination period, i.e., on Day −14. PG-PS induces inflammation highly representative of that produced by certain drugs and is also used in models of arthritis. On Day 0, animals were dosed via single intraarticular injection of 70 μL saline, daily oral celecoxib 10 mg/kg, or single intraarticular injection of 70 μL (8.5 mg) ropivacaine suspension. Two hours post-dosing, the inflammatory response was activated by a tail vein injection of 0.5 mL of 0.4 mg/mL PG-PS. […] The animals in the saline and ropivacaine groups were re-dosed on Day 23, after the initial inflammatory response subsided, and the inflammatory response was reactivated on Day 28 by tail vein injection. The oral celecoxib was dosed 10 mg/kg daily throughout the study except for Day 29, when the dose was increased to 50 mg/kg. The test groups are described in Table 4:
(§2) Drug quantitation was performed on blood and plasma samples to assess the pharmacokinetic profiles of the drugs and the levels to which the drugs were present systemically. Knee joint tissues were also assayed for drug concentration in order to determine if any residual drug was present in the joints at the conclusion of the study. In addition, histological analysis and cytokine analysis were performed on knee joint tissues collected during necropsy on Day 30. […] Quantitation of celecoxib was performed on plasma and whole blood samples collected from the rats in Groups 2 to 5 at timepoints of 1, 6, 12, and 24 hours, and at 7, 14, 21, and 29 days. […] Celecoxib levels in Group 2 (saline control) were primarily below the quantitation limit, as expected. Celecoxib was also detected in the knee tissues from Groups 3, 4, and 5, with the Group 3 levels being the highest, followed by Group 4, and finally Group 5. […] Ropivacaine was undetected in the rat knee tissues.

[2] = relative, bupivacaine and ropivacaine; cited from earlier work
[3] = slow release depot dosage form; cited from earlier work
[4] = test system: Lewis rats inoculated with peptidoglycan-polysaccharide (PG-PS); assay: Histopathological examination of stifle joints (synovial inflammation); assay type: in vivo; conditions: scale of 1 (no inflammation) to 3, necropsy Day 30
Description: as §1, §2

Cc1ccc(-c2cc(C(F)(F)F)nn2-c2ccc(S(N)(=O)=O)cc2)cc1 [celecoxib]
drug in knee tissues ([1]; Group 3, 10% suspension intraarticular): highest | interval up to which measurable levels were detected in the blood ([1]; Group 3, intraarticular 70 μL 10% suspension): ≤ 14 days | blood levels compared to Group 3 ([1]; Group 4 (5% suspension) vs Group 3 (10% suspension)): systematically lower | drug in knee tissues ([1]; Group 4, 5% suspension intraarticular): detected | interval up to which measurable levels were detected in the blood ([1]; Group 4, intraarticular 70 μL 5% suspension): ≤ 14 days | blood level on Day 29 ([1]; Group 4, intraarticular 70 μL 5% suspension, re-dosed Day 23): measurable levels | drug in knee tissues ([1]; Group 5, oral 10 mg/kg/day): detected | persistence of systemic levels in blood ([1]; after intraarticular injection, rat blood): approximately 2 weeks

CCCCN1CCCCC1C(=O)Nc1c(C)cccc1C (centres unmarked) [bupivacaine]
equipotent concentration [2]: 1 | minimum tissue drug level found to alleviate pain [3]: 30 µg/mL

Cc1ccc(-c2cc(C(F)(F)F)nn2-c2ccc(S(N)(=O)=O)cc2)cc1 [Oral Celecoxib]
synovial inflammation score, Animal 1 [4]: 3 | synovial inflammation score, Animal 2 [4]: 3 | synovial inflammation score, Animal 3 [4]: 3 | synovial inflammation score, Animal 4 [4]: 2
